Assay results reported in publication PMC11625470 (Nature chemical biology, 2024).
Read-outs that look alike come from different tables or passages of the source. Each block holds one molecule with its values, some of them ahead of it.

How the values were obtained:
[1] = molecular target: T1, human concentrative nucleoside transporter 3 (hCNT3) (Homo sapiens, UniProt Q9HAS3); test: cold competition of [3H]-ribavirin uptake in oocytes; assay type: cell-based
T1 sequence (Q9HAS3 1-691): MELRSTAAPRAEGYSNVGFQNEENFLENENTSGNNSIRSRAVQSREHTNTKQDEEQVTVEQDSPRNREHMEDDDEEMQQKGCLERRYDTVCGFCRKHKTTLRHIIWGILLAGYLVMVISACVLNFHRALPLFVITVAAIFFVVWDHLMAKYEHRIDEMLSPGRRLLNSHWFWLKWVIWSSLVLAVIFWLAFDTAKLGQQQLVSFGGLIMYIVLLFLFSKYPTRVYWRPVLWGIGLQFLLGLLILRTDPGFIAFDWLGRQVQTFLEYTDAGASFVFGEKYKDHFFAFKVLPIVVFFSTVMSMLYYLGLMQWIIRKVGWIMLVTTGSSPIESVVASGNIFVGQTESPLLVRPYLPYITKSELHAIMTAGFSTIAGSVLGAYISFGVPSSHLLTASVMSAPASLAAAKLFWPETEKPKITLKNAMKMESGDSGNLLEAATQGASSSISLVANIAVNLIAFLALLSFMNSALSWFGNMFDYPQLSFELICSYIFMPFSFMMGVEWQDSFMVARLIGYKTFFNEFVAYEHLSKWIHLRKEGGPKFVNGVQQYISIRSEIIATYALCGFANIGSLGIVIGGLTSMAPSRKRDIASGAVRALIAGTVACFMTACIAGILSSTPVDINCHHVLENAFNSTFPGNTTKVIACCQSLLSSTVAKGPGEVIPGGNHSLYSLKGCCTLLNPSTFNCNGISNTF

[2] = molecular target: T1, human concentrative nucleoside transporter 3 (hCNT3); test: as above; assay type: cell-based; remark: listed apart in the source
[3] = molecular target: T2, bovine CNT3 (bCNT3) (Bos taurus, UniProt F1MGR1); test: cryo-EM structure; assay type: binding
T2 sequence (F1MGR1 1-699): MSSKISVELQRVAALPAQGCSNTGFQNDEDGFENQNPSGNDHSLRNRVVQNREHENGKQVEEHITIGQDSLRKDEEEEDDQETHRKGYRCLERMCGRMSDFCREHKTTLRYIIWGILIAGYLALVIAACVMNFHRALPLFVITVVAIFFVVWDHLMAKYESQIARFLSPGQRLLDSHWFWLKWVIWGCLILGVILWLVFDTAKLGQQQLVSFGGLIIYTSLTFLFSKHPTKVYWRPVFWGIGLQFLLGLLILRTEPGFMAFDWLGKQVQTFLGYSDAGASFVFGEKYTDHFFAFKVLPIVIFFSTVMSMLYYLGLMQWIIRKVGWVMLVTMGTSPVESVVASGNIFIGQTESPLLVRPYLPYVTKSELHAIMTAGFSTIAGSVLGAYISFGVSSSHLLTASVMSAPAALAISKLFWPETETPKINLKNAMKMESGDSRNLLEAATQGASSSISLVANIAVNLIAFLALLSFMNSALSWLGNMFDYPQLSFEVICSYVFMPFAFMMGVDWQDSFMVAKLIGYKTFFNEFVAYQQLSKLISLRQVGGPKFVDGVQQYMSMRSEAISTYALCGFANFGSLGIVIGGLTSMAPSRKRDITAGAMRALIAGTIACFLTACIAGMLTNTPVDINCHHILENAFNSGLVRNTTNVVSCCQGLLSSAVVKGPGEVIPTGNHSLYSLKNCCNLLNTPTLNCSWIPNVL

[4] = molecular target: T1, human concentrative nucleoside transporter 3 (hCNT3); test: cold competition of [3H]-ribavirin uptake in oocytes; assay type: cell-based; remark: listed apart in the source
[5] = molecular target: T2, bovine CNT3 (bCNT3); test: cryo-EM structure; assay type: binding; remark: listed apart in the source
[6] = molecular target: the molecule itself; test: cryo-EM structure

Molecule: C[C@@]1(F)[C@H](O)[C@@H](CO)O[C@H]1n1ccc(=O)[nH]c1=O [PSI-6206]
cryo-EM structure (2.69 Å), inward-facing state [5]: The quality of the maps enabled unambiguous modeling of nucleoside drugs for NHC, PSI-6206, and ribavirin

B1: Bos taurus concentrative nucleoside transporter 3 (CNT3) (natural protein, UniProt F1MGR1 1-699, looked up)
chain: MSSKISVELQRVAALPAQGCSNTGFQNDEDGFENQNPSGNDHSLRNRVVQNREHENGKQVEEHITIGQDSLRKDEEEEDDQETHRKGYRCLERMCGRMSDFCREHKTTLRYIIWGILIAGYLALVIAACVMNFHRALPLFVITVVAIFFVVWDHLMAKYESQIARFLSPGQRLLDSHWFWLKWVIWGCLILGVILWLVFDTAKLGQQQLVSFGGLIIYTSLTFLFSKHPTKVYWRPVFWGIGLQFLLGLLILRTEPGFMAFDWLGKQVQTFLGYSDAGASFVFGEKYTDHFFAFKVLPIVIFFSTVMSMLYYLGLMQWIIRKVGWVMLVTMGTSPVESVVASGNIFIGQTESPLLVRPYLPYVTKSELHAIMTAGFSTIAGSVLGAYISFGVSSSHLLTASVMSAPAALAISKLFWPETETPKINLKNAMKMESGDSRNLLEAATQGASSSISLVANIAVNLIAFLALLSFMNSALSWLGNMFDYPQLSFEVICSYVFMPFAFMMGVDWQDSFMVAKLIGYKTFFNEFVAYQQLSKLISLRQVGGPKFVDGVQQYMSMRSEAISTYALCGFANFGSLGIVIGGLTSMAPSRKRDITAGAMRALIAGTIACFLTACIAGMLTNTPVDINCHHILENAFNSGLVRNTTNVVSCCQGLLSSAVVKGPGEVIPTGNHSLYSLKNCCNLLNTPTLNCSWIPNVL
stoichiometry N [6]: 3

Continued, in another order:

IC50 [1]: ~400 µM
Molecule: N#C[C@@]1(c2ccc3c(N)ncnn23)O[C@H](CO)[C@@H](O)[C@H]1O [GS4, GS-441524]

IC50 [2]: ~54 µM
Molecule: CC(C)C(=O)OC[C@H]1O[C@@H](n2ccc(NO)nc2=O)[C@H](O)[C@@H]1O [MPV, molnupiravir]

IC50 [4]: ~13 µM
Molecule: O=c1nc(NO)ccn1[C@@H]1O[C@H](CO)[C@@H](O)[C@H]1O [NHC, N^4-hydroxycytidine]
cryo-EM structure (2.74 Å), inward-facing state [3]: This substituent interacts with S380 in the bCNT3-NHC structure
